Experimental data as given in ChEMBL document CHEMBL3871285, “NTS2-selective neurotensin mimetics with tetrahydrofuran amino acids” (Bioorg Med Chem, 2017).
*1 amine or outer side, *2 acyl side, *3 side chain or, on linkers, in order; H or OH if unused. Where a SMILES comes first, the peptide text is derived from it. [ ]: non-standard residue; d: D form. X2 = O=C([C@]1(N[*:1])CCO[C@@H]1c1ccc(Br)cc1)[*:2]; X1 = O=C([C@@]1(N[*:1])CCO[C@H]1c1ccc(O)cc1)[*:2]; X3 = O=C([C@]1(N[*:1])CCO[C@@H]1c1ccc(O)cc1)[*:2]

Tests used:
[1] = molecular target: Neurotensin receptor type 2 (Homo sapiens, UniProt O95665); experiment: Displacement of [leucine-3H]NT (8 to 13 residues) from human NTS2 receptor expressed in HEK293 cell membranes after 60 mins by scintillation counting
Neurotensin receptor type 2, sequence (O95665 whole entry, the tested form may be a part): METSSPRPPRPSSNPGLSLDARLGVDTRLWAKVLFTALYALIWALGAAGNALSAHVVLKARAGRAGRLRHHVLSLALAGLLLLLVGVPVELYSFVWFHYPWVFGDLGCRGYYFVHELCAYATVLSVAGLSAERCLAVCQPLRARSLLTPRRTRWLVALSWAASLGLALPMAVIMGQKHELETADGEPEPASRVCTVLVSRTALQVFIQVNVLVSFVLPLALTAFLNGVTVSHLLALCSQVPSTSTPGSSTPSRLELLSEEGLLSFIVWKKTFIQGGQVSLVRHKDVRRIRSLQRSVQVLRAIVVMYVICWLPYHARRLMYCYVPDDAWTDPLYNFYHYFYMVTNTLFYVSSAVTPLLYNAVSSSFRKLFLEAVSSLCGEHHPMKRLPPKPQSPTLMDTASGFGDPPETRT

[2] = molecular target: Neurotensin receptor type 1 (Homo sapiens, UniProt P30989); experiment: Displacement of [3H]neurotensin from human NTS1 receptor expressed in CHOK1 cell membranes after 60 mins by scintillation counting; set-up: species or system CHO-K1
Neurotensin receptor type 1, sequence (P30989 whole entry): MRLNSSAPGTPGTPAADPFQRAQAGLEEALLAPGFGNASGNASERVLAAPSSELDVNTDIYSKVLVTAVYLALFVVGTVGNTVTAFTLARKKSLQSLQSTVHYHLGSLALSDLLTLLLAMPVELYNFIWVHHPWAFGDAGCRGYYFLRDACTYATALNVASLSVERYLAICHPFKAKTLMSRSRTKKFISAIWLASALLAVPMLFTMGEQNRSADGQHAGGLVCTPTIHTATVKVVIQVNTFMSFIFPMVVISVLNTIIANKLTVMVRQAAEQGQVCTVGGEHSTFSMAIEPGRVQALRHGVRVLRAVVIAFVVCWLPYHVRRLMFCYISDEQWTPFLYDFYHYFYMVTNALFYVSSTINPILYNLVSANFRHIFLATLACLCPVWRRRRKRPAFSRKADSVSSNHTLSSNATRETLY

[3] = Selectivity ratio of IC50 for human NTS1 receptor expressed in CHOK1 cell membranes to IC50 for NTS2 receptor expressed in HEK293 cell membranes

| Ki [1] | Ki [2] | Compound | Ratio Ki [3] |
| --- | --- | --- | --- |
| 0.012 µM | – | CC[C@H](C)[C@H](NC(=O)C1(NC(=O)[C@@H]2CCCN2C(=O)[C@H](CCCNC(=N)N)NC(=O)[C@@H](N)CCCNC(=N)N)CCOC1c1ccc(Br)cc1)C(=O)N[C@@H](CC(C)C)C(=O)O (some centres undefined) | – |
| 0.029 µM | 35 µM | CC(C)C[C@H](NC(=O)CNC(=O)[C@@]1(NC(=O)[C@@H]2CCCN2C(=O)[C@H](CCCNC(=N)N)NC(=O)[C@@H](N)CCCNC(=N)N)CCO[C@H]1c1ccc(O)cc1)C(=O)O (H-RRP[X1]GL-OH) | >1000 |
| 0.615 µM | – | CC[C@H](C)[C@H](NC(=O)[C@]1(NC(=O)[C@@H]2CCCN2C(=O)[C@H](CCCNC(=N)N)NC(=O)[C@@H](N)CCCNC(=N)N)CCO[C@@H]1c1ccc(Br)cc1)C(=O)N[C@@H](CC(C)C)C(=O)O | – |
| 1.95 µM | 35 µM | CC(C)C[C@H](NC(=O)CNC(=O)C1(NC(=O)[C@@H]2CCCN2C(=O)[C@H](CCCCN)NC(=O)[C@@H](N)CCCCN)CCOC1c1ccc(Br)cc1)C(=O)O (stereo in doubt; 16-2) | – |
| 28 µM | 53 µM | CC(C)C[C@H](NC(=O)C1(NC(=O)[C@@H]2CCCN2C(=O)[C@H](CCCNC(=N)N)NC(=O)[C@@H](N)CCCCN)CCOC1c1ccc(Br)cc1)C(=O)O (stereo in doubt; 8-1) | – |
| 0.5 µM | > 50 µM | CC(C)C[C@H](NC(=O)CNC(=O)C1(NC(=O)[C@@H]2CCCN2C(=O)[C@H](CCCCN)NC(=O)[C@@H](N)CCCCN)CCOC1c1ccc(Br)cc1)C(=O)O (stereo in doubt; 16-1) | – |
| 49 µM | 91.5 µM | CC(C)C[C@H](NC(=O)C1(NC(=O)[C@@H]2CCCN2C(=O)[C@H](CCCNC(=N)N)NC(=O)[C@@H](N)CCCNC(=N)N)CCOC1c1ccc(Br)cc1)C(=O)O (stereo in doubt; 10-1) | – |
| – | 70.5 µM | CC(C)C[C@H](NC(=O)C1(NC(=O)[C@@H]2CCCN2C(=O)[C@H](CCCCN)NC(=O)[C@@H](N)CCCNC(=N)N)CCOC1c1ccc(Br)cc1)C(=O)O (stereo in doubt; 9-1) | – |
| 0.012 µM | – | CC[C@H](C)[C@H](NC(=O)[C@]1(NC(=O)[C@@H]2CCCN2C(=O)[C@H](CCCNC(=N)N)NC(=O)[C@@H](N)CCCNC(=N)N)CCO[C@@H]1c1ccc(O)cc1)C(=O)N[C@@H](CC(C)C)C(=O)O | – |
| 11 µM | 92.3 µM | CC(C)C[C@H](NC(=O)C1(NC(=O)[C@@H]2CCCN2C(=O)[C@H](CCCNC(=N)N)NC(=O)[C@@H](N)CCCCN)CCOC1c1ccc(Br)cc1)C(=O)O (stereo in doubt; 8-2) | – |
| 0.7 µM | 20 µM | CC(C)C[C@H](NC(=O)CNC(=O)[C@]1(NC(=O)[C@@H]2CCCN2C(=O)[C@H](CCCNC(=N)N)NC(=O)[C@@H](N)CCCNC(=N)N)CCO[C@@H]1c1ccc(O)cc1)C(=O)O (H-RRP[X3]GL-OH) | – |
| 27 µM | 67 µM | CC(C)C[C@H](NC(=O)C1(NC(=O)[C@@H]2CCCN2C(=O)[C@H](CCCCN)NC(=O)[C@@H](N)CCCCN)CCOC1c1ccc(Br)cc1)C(=O)O (stereo in doubt; 7-1) | – |
| 1.43 µM | 72.5 µM | CC(C)C[C@H](NC(=O)C1(NC(=O)[C@@H]2CCCN2C(=O)[C@H](CCCNC(=N)N)NC(=O)[C@@H](N)CCCNC(=N)N)CCOC1c1ccc(Br)cc1)C(=O)O (stereo in doubt; 10-2) | – |
| 0.069 µM | 0.093 µM | CC[C@H](C)[C@H](NC(=O)[C@H](Cc1ccc(Br)cc1)NC(=O)[C@@H]1CCCN1C(=O)[C@H](CCCCN)NC(=O)[C@@H](N)CCCCN)C(=O)N[C@@H](CC(C)C)C(=O)O | – |
| 0.11 µM | 5 µM | CC[C@H](C)[C@H](NC(=O)[C@]1(NC(=O)[C@@H]2CCCN2C(=O)[C@H](CCCNC(=N)N)NC(=O)[C@@H](N)CCCCN)CCO[C@@H]1c1ccc(Br)cc1)C(=O)N[C@@H](CC(C)C)C(=O)O (H-KRP[X2]IL-OH) | – |
| 2.03 µM | 95.5 µM | CC(C)C[C@H](NC(=O)C1(NC(=O)[C@@H]2CCCN2C(=O)[C@H](CCCCN)NC(=O)[C@@H](N)CCCCN)CCOC1c1ccc(Br)cc1)C(=O)O (stereo in doubt; 7-2) | – |
| – | > 100 µM | CC(C)C[C@H](NC(=O)C1(NC(=O)[C@@H]2CCCN2C(=O)[C@H](CCCCN)NC(=O)[C@@H](N)CCCNC(=N)N)CCOC1c1ccc(Br)cc1)C(=O)O (stereo in doubt; 9-2) | – |
| 0.873 µM | 2.17 µM | CC[C@H](C)[C@H](NC(=O)[C@@H](Cc1ccc(Br)cc1)NC(=O)[C@@H]1CCCN1C(=O)[C@H](CCCCN)NC(=O)[C@@H](N)CCCCN)C(=O)N[C@@H](CC(C)C)C(=O)O | – |
| – | 10 µM | CC[C@H](C)[C@H](NC(=O)[C@]1(NC(=O)[C@@H]2CCCN2C(=O)[C@H](CCCCN)NC(=O)[C@@H](N)CCCNC(=N)N)CCO[C@@H]1c1ccc(Br)cc1)C(=O)N[C@@H](CC(C)C)C(=O)O (H-RKP[X2]IL-OH) | – |
| – | 13 µM | CC[C@H](C)[C@H](NC(=O)[C@]1(NC(=O)[C@@H]2CCCN2C(=O)[C@H](CCCCN)NC(=O)[C@@H](N)CCCCN)CCO[C@@H]1c1ccc(Br)cc1)C(=O)N[C@@H](CC(C)C)C(=O)O (H-KKP[X2]IL-OH) | – |
